Results published in patent US4425350A, “5,6,6a,7-Tetrahydro-4H-dibenz(de,g)-isoquinoline derivatives, and their use for treating central nervous system disorders” (Warner-Lambert Company, priority 1980, dated 1984).

Legend:
[1] = Prolongation of evipan sodium narcosis; format: in vivo
From the text: 3. Prolongation of evipan sodium narcosis, Arch. Int. Pharmacodyn; 126, pgs. 219-227 (1960).

[2] = tested on: rats; experiment: Behavioural test in rats, modified after Irwin; format: in vivo
From the text: 2. Behavioural test in rats, modified after Irwin, Psychopharmacologica. (Berl.); 13, pgs. 222-257 (1968).

[3] = Acute toxicity (LD50), intragastral administration, male mice; conditions: mouse, in vivo, po
[4] = tested on: dogs; experiment: Alphalysis (alphalytic activity) in dogs; format: in vivo; conditions: for alphalytic activity: from 1 mg./kg. i.v.
Experimental: 4. Alphalysis, Medizinische Wochenschrift; 81, pg. 352 (1951).
The alphalytic activity of the compounds of Examples 8 and 9 was tested on dogs.

| Compound | prolongation of the sleeping time in % ([1]; dosage 50 mg./kg.) [%] | prolongation of the sleeping time in % ([1]; dosage 100 mg./kg.) [%] | catatonia ([2]; 150 mg./kg.) | lowering of the body temperature ([2]; 150 mg./kg.) | ptosis ([2]; 150 mg./kg.) | sedation ([2]; 150 mg./kg.) | LD50 [3] [mg/kg] | catatonia ([2]; 300 mg./kg.) | lowering of the body temperature ([2]; 300 mg./kg.) | muscle tonus ([2]; 300 mg./kg.) | ptosis ([2]; 300 mg./kg.) | sedation ([2]; 300 mg./kg.) | alphalytic activity [4] | alphalytic action after intraduodenal administration ([4]; intraduodenal) | behaviour (change of symptoms versus 150 mg./kg.) ([2]; 300 mg./kg., symptoms at 150 mg./kg.: sedation, catatonia, lowering of the body temperature) | muscle tonus ([2]; 150 mg./kg.) |
| --- | --- | --- | --- | --- | --- | --- | --- | --- | --- | --- | --- | --- | --- | --- | --- | --- |
| COc1cc2c(cc1OC)-c1c(OC)c(OC)cc3c1C(CNC3)C2 (racemic) [Example 7, (±)-5,6,6a,7-Tetrahydro-1,2,9,10-tetramethoxy-4H-dibenz(de,g)isoquinolin] | 147 | 324 | catatonia | lowering of the body temperature | ptosis | sedation | ~600 |  |  |  |  |  |  |  |  |  |
| COc1cc2c(cc1OC)-c1c(OC)c(OC)cc3c1C(C2)CN(C)C3 (racemic) [Example 8, (±)-5,6,6a,7-Tetrahydro-1,2,9,10-tetramethoxy-5-methyl-4H-dibenz(de,g)isoquinoline] | 64 |  |  |  |  |  | 800 | catatonia | lowering | reduced muscle tonus | ptosis | sedation | a distinct alphalytic activity is detectable | the action could also be confirmed after intraduodenal administration |  |  |
| COc1cc2c3c(c1OC)CN(C)CC3Cc1cc3c(cc1-2)OCO3 (racemic) [Example 9, (±)-5,6,6a,7-tetrahydro-2,3-dimethoxy-9,10-methylenedioxy-5-methyl-4H-dibenz(de,g)isoquinoline] | 339 | 417 | catatonia | lowering |  | sedation | ~1200 |  |  |  |  |  | a distinct alphalytic activity is detectable |  | strengthening of the symptoms |  |
| COc1cc2c(cc1OC)-c1cc(OC)c(OC)c3c1C(C2)CN(C)C3 (racemic) [Example 10, (±)-5,6,6a,7-Tetrahydro-2,3,9,10-tetramethoxy-5-methyl-4H-dibenz(de,g)isoquinoline] | 268 | 347 | catatonia |  |  | sedation | ~1200 |  |  |  |  |  |  |  |  | reduced muscle tonus |
